In assay [1] the test system is Staphylococcus aureus. The assay is described as follows: Antimicrobial activity against methicillin-resistant Staphylococcus aureus ATCC 43300 assessed as septal deformation at 1 ug/ml after 10 mins by transmission electron microscopy. Format: functional, organism-based.
Assay [2] relates to Enterococcus faecalis. Description: Antimicrobial activity against Enterococcus faecalis clinical isolate A5241515 assessed as formation of large membrane inclusions at 1 ug/ml after 6 hrs by transmission electron microscopy. The format is functional, organism-based.
For assay [3], the system named is Enterococcus faecalis. Description: Antimicrobial activity against Enterococcus faecalis clinical isolate A5241515 assessed as growth inhibition at 1 ug/ml upto 6 hrs. The format is functional, organism-based.
The subject of assay [4] is Staphylococcus aureus. The assay is described as follows: Antimicrobial activity against methicillin-resistant Staphylococcus aureus ATCC 43300 assessed as reduction in cell counts at 1 ug/ml after 10 mins. The format is functional.
Assay [5] deals with Staphylococcus aureus. Description: Antimicrobial activity against methicillin-resistant Staphylococcus aureus ATCC 43300 assessed as formation of membrane inclusions at 1 ug/ml after 10 mins by transmission electron microscopy. Format: functional, organism-based.
Assay [6] has as its system Staphylococcus aureus. The assay is described as follows: Antimicrobial activity against methicillin-resistant Staphylococcus aureus ATCC 43300 assessed as loss of septal midline at 1 ug/ml after 10 mins by transmission electron microscopy. The format is functional, organism-based.
Assay [7] relates to Enterococcus faecalis. The assay is described as follows: Antimicrobial activity against Enterococcus faecalis clinical isolate A5241515 assessed as cell ghost formation at 0.12 ug/ml after 3 hrs by transmission electron microscopy. Format: functional, organism-based.
For assay [8], the system named is Staphylococcus aureus. Description: Antimicrobial activity against methicillin-resistant Staphylococcus aureus ATCC 43300 assessed as cell wall thickening at 1 ug/ml after 10 mins by transmission electron microscopy. The format is functional, organism-based.
Assay [9] concerns Enterococcus faecalis. Description: Antimicrobial activity against Enterococcus faecalis clinical isolate A5241515 assessed as growth inhibition at 0.12 ug/ml upto 3 hrs. Format: functional, organism-based.
The subject of assay [10] is Staphylococcus aureus. The assay is described as follows: Antimicrobial activity against methicillin-resistant Staphylococcus aureus ATCC 43300 assessed as aberrant septum formation at 1 ug/ml after 10 mins by transmission electron microscopy. The format is functional, organism-based.
Assay [11] has as its system Enterococcus faecalis. Description: Antimicrobial activity against Enterococcus faecalis clinical isolate A5241515 assessed as formation of extensive fibrils around the cell at 0.12 ug/ml after 3 hrs by transmission electron microscopy. Format: functional, organism-based.
Assay [12] has as its system Enterococcus faecalis. The assay is described as follows: Antimicrobial activity against Enterococcus faecalis clinical isolate A5241515 assessed as septal deformation at 0.12 ug/ml after 3 hrs by transmission electron microscopy. Format: functional, organism-based.
For assay [13], the system named is Staphylococcus aureus. Description: Antimicrobial activity against methicillin-resistant Staphylococcus aureus ATCC 43300 assessed as aberrant septum formation at 16 ug/ml after 3 hrs by transmission electron microscopy. The format is functional, organism-based.
Assay [14] deals with Staphylococcus aureus. Description: Antimicrobial activity against methicillin-resistant Staphylococcus aureus ATCC 43300 assessed as loss of septal midline at 16 ug/ml after 3 hrs by transmission electron microscopy. Format: functional, organism-based.
The test system of assay [15] is Staphylococcus aureus. Description: Antimicrobial activity against methicillin-resistant Staphylococcus aureus ATCC 43300 assessed as cell wall thickening at 16 ug/ml after 3 hrs by transmission electron microscopy. The format is functional, organism-based.
Assay [16] deals with Staphylococcus aureus. The assay is described as follows: Antimicrobial activity against methicillin-resistant Staphylococcus aureus ATCC 43300 assessed as reduction in cell counts at 16 ug/ml after 3 hrs. The format is functional.
For assay [17], the system named is Staphylococcus aureus. The assay is described as follows: Antimicrobial activity against methicillin-resistant Staphylococcus aureus ATCC 43300 assessed as septal deformation at 16 ug/ml after 3 hrs by transmission electron microscopy. Format: functional, organism-based.
In assay [18] the test system is Staphylococcus aureus. Description: Antimicrobial activity against methicillin-resistant Staphylococcus aureus ATCC 43300 assessed as formation of closing iris septal growth pattern at 16 ug/ml after 3 hrs by transmission electron microscopy. The format is functional, organism-based.

SMILES strings stand for the structures. The source made the active and inactive calls. The rule behind the calls is not given here.

Consider `CN[C@H](CC(C)C)C(=O)N[C@H]1C(=O)N[C@@H](CC(N)=O)C(=O)N[C@H]2C(=O)N[C@H]3C(=O)N[C@H](C(=O)N[C@H](C(=O)O)c4cc(O)cc(O)c4-c4cc3ccc4O)[C@H](O[C@H]3C[C@](C)(N)[C@@H](O)[C@H](C)O3)c3ccc(c(Cl)c3)Oc3cc2cc(c3O[C@@H]2O[C@H](CO)[C@@H](O)[C@H](O)[C@H]2O[C@H]2C[C@](C)(NCc3ccc(-c4ccc(Cl)cc4)cc3)[C@@H](O)[C@H](C)O2)Oc2ccc(cc2Cl)[C@H]1O` [ORITAVANCIN], for which the outcome in the assay on Staphylococcus aureus [1], in the assay on Enterococcus faecalis [2], with Enterococcus faecalis [3], in the assay on Staphylococcus aureus [5], in the assay on Staphylococcus aureus [6] and in the assay on Enterococcus faecalis [7] was Active. The result in the assay on Staphylococcus aureus [8], with Enterococcus faecalis [9], in the assay with Staphylococcus aureus [10], in the assay with Enterococcus faecalis [11] and with Enterococcus faecalis [12] was Active. The “fold change (FC)” value in the assay on Staphylococcus aureus [4] was 0.35.
For `CN[C@H](CC(C)C)C(=O)N[C@H]1C(=O)N[C@@H](CC(N)=O)C(=O)N[C@H]2C(=O)N[C@H]3C(=O)N[C@H](C(=O)N[C@H](C(=O)O)c4cc(O)cc(O)c4-c4cc3ccc4O)[C@H](O)c3ccc(c(Cl)c3)Oc3cc2cc(c3O[C@@H]2O[C@H](CO)[C@@H](O)[C@H](O)[C@H]2O[C@H]2C[C@](C)(N)[C@H](O)[C@H](C)O2)Oc2ccc(cc2Cl)[C@H]1O` [VANCOMYCIN], the outcome with Staphylococcus aureus [13], in the assay on Staphylococcus aureus [14] and with Staphylococcus aureus [17] was inactive. For the same molecule, the outcome in the assay with Staphylococcus aureus [15] and in the assay with Staphylococcus aureus [18] was Active. For the same molecule, in the assay with Staphylococcus aureus [16], the “fold change (FC)” value was determined as 0.26.

The record behind these values is ChEMBL document CHEMBL1629626, “Ultrastructural effects of oritavancin on methicillin-resistant Staphylococcus aureus and vancomycin-resistant Enterococcus” (2009).
